According to patent US5081123A, “Quinoxaline compound and their preparation and use” (Novo Nordisk A/S, priority 1988, dated 1992):
Values after ≈ are worked out from the molar mass of the structure shown.

How the values were obtained:
[1] = biological target: quisqualate type receptors (3H-AMPA, rat cerebral cortical membrane homogenate); test: 3H-AMPA binding (displacement from quisqualate type receptors); conditions: 5 nM 3H-AMPA, 0° C., 30 min, pH 7.1
Description: (§1) The pharmacological properties of the compounds of the present invention can be illustrated by determining their capability for displacing radioactively labelled 2-amino-3-hydroxy-5-methyl-4-isoxazolepropionic acid (AMPA) from the quisqualate type receptors.
The displacement activity of the compounds may be shown by determining the IC50 value which represents the concentration (μg/ml) which causes a displacement of 50% of the specific binding of ^3 H-AMPA.
500 μl of thawed rat cerebral cortical membrane homogenate in Tris-HCl (30 mM), CaCl2 (2.5 mM) and KSCN (100 mM) pH 7.1 were incubated at 0° C. for 30 min. with 25 μl ^3 H-AMPA (5 nM final concentration) and the test compound and buffer. Nonspecific binding was determined by incubation with L-glutamic acid (600 μM final concentration). The binding reaction was terminated by adding 5 ml of ice-cold buffer followed by filtration through Whatman GF/C glass fibre filters and 2×5 ml wash with ice-cold buffer. Bound radioactivity was measured by scintillation counting. IC50 was determined by Hill analysis of at least four concentrations of test compound.

[2] = biological target: quisqualate receptors (quisqualic acid stimulated 3H-GABA efflux, cultured cortical neurones); test: Antagonism of quisqualic acid stimulated 3H-GABA efflux from cultured cortical neurones; format: cell-based, mouse; conditions: Table 1; test not stated
Description: as §1
The antagonism is measured by determining the EC50 value which represents the concentration which reduces the rate of quisqualic acid stimulated ^3 H-GABA efflux by 50%.
Cerebral cortices of 16 day old mouse embryos are chopped in 0.4×0.4 mm cubes. The tissue is dissociated by mild trypsinization (0.1% (wt/vol) trypsin, 37° C., 15 min) and subsequently inoculated into poly-L-lysine-coated 3 cm Petri dishes containing a slightly modified DMEM (24.5 mM KCl, 30 mM glucose) supplemented with p-aminobenzoate (7μM), insulin (100 mU/1) and 10% (vol/vol) horse serum. Cells are maintained in culture for 5-7 days with the addition of the antimitotic agent cytosine arbinoside (40 μM) from day 2 in vitro to prevent glial proliferation. For further details and references see Drejer et al. Exp. Brain Res. 47, 259 (1982)).
Release experiments are performed using the model described by Drejer et al. (Life Sci. 38, 2077 (1986)). Cerebral cortex interneurons cultured in Petri dishes (30 mm) are added 100 μM gamma-vinyl-GABA one hour before the experiment in order to inhibit degradation of GABA in the neurons. 30 min. before the experiment 5 μCi ^3 H-GABA is added to each culture and after this preloading period the cell monolayer at the bottom of the dish is covered with a piece of nylon mesh to protect the cells against mechanical damage and to facilitate dispersion of medium over the cell layer. The preloading medium is removed and the Petri dishes are placed in a superfusion system. This system consists of a peristaltic pump continuously delivering thermostated 37° C. superfusion medium (HEPES buffered saline (HBS): 10 mM HEPES, 135 mM NaCl, 5 mM KCl, […] 1.0 mM CaCl2 and 6 mM D-glucose; pH 7.4) from a reservoir to the top of the slightly tilted Petri dish. The medium is continuously collected from the lower part of the dish and delivered to a fraction collector. Initially, the cells are superfused with HBS for 15 min. (flow rate 2 ml/min.). The cells are stimulated for 30 sec. every 4 min. by changing the superfusion medium from HBS to a corresponding medium containing quisqualate and test compound. The release of ^3 H-GABA in the presence of quisqualate (stimulated release in cpm) are corrected for the mean basal release (Cpm) before and after the stimulation.

Structure (SMILES)	IC50 (concentration which causes a displacement of 50% of the specific binding of 3H-AMPA) [1]	EC50 [2]
O=c1[nH]c2c3c(ccc2n(O)c1=O)CCCC3 [Example 5b, 7,8,9,10-Tetrahydro-4-hydroxybenzo[f]quinoxaline-2,3(1H,4H)-dione]	0.49 µg/mL	0.14 µg/mL (≈ 0.603 µM)
N#Cc1cc2c([nH]c(=O)c(=O)n2O)c2ccccc12 [Example 2c, 6-Cyano-4-hydroxy-benzo[f]quinoxaline-2,3(1H,4H)-dione]	0.39 µg/mL	0.1 µg/mL (≈ 0.395 µM)
O=c1[nH]c2c3cccnc3ccc2n(O)c1=O [Example 4b, 4-Hydroxypyrido[3,2-f]quinoxaline-2,3(1H,4H)-dione]	0.23 µg/mL	0.16 µg/mL (≈ 0.698 µM)
O=c1[nH]c2c3ccccc3ccc2n(O)c1=O [Example 1b, 4-Hydroxy-benzo[f]quinoxaline-2,3(1H,4H)-dione]	0.61 µg/mL	0.12 µg/mL (≈ 0.526 µM)
